Data: PubChem BioAssay (NCI)
Several values for one entry are separate records, joined by “and”; a condition that tells them apart may be missing. Identical values can stand only once.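 Each compound was tested at five concentrations against cells in 96-well plates for 48 hours. At the GI50, growth is halved. The concentration for full growth arrest is given as TGI.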

Assays:
Assay in all cases: NCI tumour cell line growth inhibition, 48 h
ACHN renal = test system: ACHN renal
CAKI-1 renal = test system: CAKI-1 renal
HCT-116 colon = test system: HCT-116 colon
HT29 colon = test system: HT29 colon
MDA-MB-435 = test system: MDA-MB-435
MOLT-4 leukemia = test system: MOLT-4 leukemia
RPMI-8226 leukemia = test system: RPMI-8226 leukemia
SF-539 CNS = test system: SF-539 CNS
SK-MEL-28 melanoma = test system: SK-MEL-28 melanoma
TK-10 renal = test system: TK-10 renal

Row | SMILES | TGI (ACHN renal) [µM] | TGI (CAKI-1 renal) [µM] | TGI (HCT-116 colon) [µM] | TGI (HT29 colon) [µM] | TGI (MDA-MB-435) [µM] | TGI (MOLT-4 leukemia) [µM] | TGI (RPMI-8226 leukemia) [µM] | TGI (SF-539 CNS) [µM] | TGI (SK-MEL-28 melanoma) [µM] | TGI (TK-10 renal) [µM] | GI50 (ACHN renal) | GI50 (CAKI-1 renal) [µM] | GI50 (MDA-MB-435) [µM] | GI50 (SF-539 CNS) [µM] | GI50 (SK-MEL-28 melanoma) [µM] | GI50 (TK-10 renal) [µM] | GI50 (HCT-116 colon) | GI50 (HT29 colon) | GI50 (MOLT-4 leukemia) | GI50 (RPMI-8226 leukemia)
1 | O=C(O)CSc1n[nH]c(=O)[nH]c1=O | > 100 | > 100 | > 100 | > 100 | > 100 | > 100 | > 100 | > 100 | > 100 | – | – | – | – | – | – | – | – | – | – | –
2 | OCC1C(OCc2ccccc2)C(OCc2ccccc2)C(OCc2ccccc2)CN1Cc1ccccc1 (stereo not drawn) | 17.9 | > 100 | 81.5 | 34.6 | > 100 | > 100 | – | > 100 | > 100 | > 100 | – | – | – | – | – | – | – | – | – | –
3 | Cc1c(C)n(CCCN2CCN(C)CC2)c2ccc(Oc3cccc(C(=O)N4CCN(CCc5ccc(F)cc5)CC4)c3)cc12 | 3.06 | 3.46 | – | – | 3.33 | – | – | 3.03 | 3.24 | 3.23 | 1.67 µM | 1.77 | 1.78 | 1.63 | 1.78 | 1.62 | – | – | – | –
4 | Cc1ccc(O)c(NC(=O)c2cccc(Nc3ccnc(C(F)(F)F)c3)c2)c1 | 48.8 | 31.8 | 17.8 | 33.4 | 25.9 | 8.15 | – | 25.7 | 31.2 | 73.5 | 9.65 µM | 11 | 6.65 | 12.5 | 16 | 19.1 | 4.14 µM | 15.7 µM | 2.02 µM | –
5 | C[C@@H](Oc1cc(-n2cnc3ccc(OC4CCN(C)CC4)cc32)sc1C(N)=O)c1ccccc1Cl | 9.19 | 6.08 | 3.15 | 2.77 | 0.0159 | 5.19 | 6.66 | 2.29 | – | 5.75 | 0.212 µM | 1.08 | 0.00549 | 0.0564 | – | 1.79 | 0.0156 µM | 0.00829 µM | 0.0123 µM | 0.0842 µM
6 | CN[C@H]1CN(c2ccc3c(=O)c(C(=O)O)cn(-c4nccs4)c3n2)C[C@@H]1OC | – | 2.24 | 4.58 | 4.2 | 3.51 | 1 | > 24 | 4.14 | 3.01 | 4.13 | – | 0.271 | 1.29 | 0.592 | 1.31 | 1.1 | 0.437 µM | 1.04 µM | 0.126 µM | 1.08 µM
7 | OC(CNc1ccnc2cc(Cl)ccc12)CNc1ccnc2cc(Cl)ccc12 | 28.2 | > 100 | 3.09 | – | 3.1 | – | 11.1 | 3.3 | – | 4.86 | 5.09 µM | 31.1 | 1.67 | 1.74 | – | 2.13 | 1.72 µM | – | – | 3 µM
8 | CC[C@H](C)[C@H](NC(=O)[C@H]1CCCCN1C)C(=O)N(C)[C@H](C[C@@H](OC(C)=O)c1cccc(C(=O)N[C@@H](Cc2ccccc2)C[C@H](C)C(=O)OC)n1)C(C)C | > 25 | – | > 25 | 0.0421 | 0.00143 | > 25 | 14.5 | 0.0183 | – | > 25 | 0.00638 µM and 0.013 µM | – | 0.00028 | 0.00592 | 0.00937 | – | 0.00325 µM and 0.0025 µM | 0.00182 µM and 0.0025 µM | 0.00811 µM and 0.0111 µM | 0.00268 µM and 0.0025 µM
9 | CC1=N/C(=C/c2ccc3c(c2)OCO3)C(=O)O1 | > 100 | > 100 | > 100 | > 100 | – | > 100 | > 100 | > 100 | > 100 | > 100 | – | – | – | – | – | – | – | – | – | –
